Data set [1] concerns Male Wistar rats. In words: Object recognition task model. Type of data set: in vivo. To be noted: rat, p.o.; for Exploration time mean ± S.E.M, Familiar object / Exploration time mean ± S.E.M, Novel object: choice trial T2, 24 hours after T1. As to the method: Object Recognition Task Model
The cognition enhancing properties of compounds of this invention were estimated by using this model.
Male Wistar rats (8-10 weeks old) were used as experimental animals. Four animals were housed in each cage. Animals were kept on 20% food deprivation from a day prior to experimentation. Water was provided ad libitum throughout the experiment. Animals were maintained on a 12 hours light/dark cycle in temperature and humidity controlled room. The experiment was carried out in a circular or square arena made up of acrylic. Rats were habituated to individual arenas for up to 1 hour in the absence of any objects on day 1.
One group of 12 rats received vehicle and another set of animals received compound of the formula (I), before the familiar (T1) and choice (T2) trials. During the familiarization phase, (T1), the rats were placed individually in the arena for 3 minutes, in which two identical objects (a1 and a2) were positioned 10 cm from the wall. 24 hours after T1, trial for long-term memory test was performed. The same rats were placed in the same arena as they were placed in T1 trial. During the choice phase (T2) rats were allowed to explore the arena for 3 minutes in presence of a copy of familiar object (a3) and one novel object (b). During the T1 and T2 trial, explorations of each object (defined as sniffing, licking, chewing or having moving vibrissae whilst directing the nose towards the object at a distance of less than 1 cm) were recorded using stopwatch.
T1 is the total time spent exploring the familiar objects (a1+a2).
T2 is the total time spent exploring the familiar object and novel object (a3+b).
The object recognition test was performed as described by Ennaceur, A., Delacour, J., 1988, A new one-trial test for neurobiological studies of memory in rats˜Behavioural data, Behav. Brain Res., 31, 47-59.

Data set [2] has as its target T1, recombinant human Muscarinic M1 receptor (Homo sapiens, UniProt P11229).
T1 construct: expressed in transfected cells
T1 sequence (P11229 1-460): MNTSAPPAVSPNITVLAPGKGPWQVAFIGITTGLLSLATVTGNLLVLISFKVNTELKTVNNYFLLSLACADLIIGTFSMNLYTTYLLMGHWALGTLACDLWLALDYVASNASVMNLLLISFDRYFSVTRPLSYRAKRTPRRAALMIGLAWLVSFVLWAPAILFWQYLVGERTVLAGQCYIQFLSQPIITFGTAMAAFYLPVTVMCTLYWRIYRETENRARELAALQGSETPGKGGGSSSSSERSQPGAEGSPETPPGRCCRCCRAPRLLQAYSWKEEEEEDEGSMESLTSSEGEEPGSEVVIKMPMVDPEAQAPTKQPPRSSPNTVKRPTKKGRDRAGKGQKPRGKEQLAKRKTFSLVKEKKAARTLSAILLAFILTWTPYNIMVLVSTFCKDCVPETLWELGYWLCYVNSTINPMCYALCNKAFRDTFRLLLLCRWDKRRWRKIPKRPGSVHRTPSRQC
In words: Allosteric potency EC50 for Muscarinic M1 receptor, CHO pCRE-Luc reporter assay with EC20 of acetylcholine. The note with it: CHO cells, in presence of EC20 of acetylcholine, 4 hours. Type of data set: cell-based. As to the method: Determination of Allosteric Potency EC50 Values for Muscarinic M1 Receptor:
A stable CHO cell line expressing recombinant human Muscarinic M1 receptor and pCRE-Luc reporter system was used for cell-based assay. The assay offers a non-radioactive based approach to determine binding of a compound to GPCRs. In this specific assay, the level of intracellular cyclic AMP which is modulated by activation or inhibition of the receptor is measured. The recombinant cells harbor luciferase reporter gene under the control of cAMP response element.
The above cells were grown in 96 well clear bottom white plates in Hams F12 medium containing 10% fetal bovine serum (FBS). Prior to the addition of compounds or standard agonist, cells were serum starved overnight. Increasing concentrations of test compounds were added along with EC20 of acetylcholine in OptiMEM medium to the cells. The incubation was continued at 37° C. in CO2 incubator for 4 hours. Medium was removed and cells were washed with phosphate buffered saline. The cells were lysed and luciferase activity was measured in a Luminometer. Luminescence counts in each concentrations of test item were normalized to the acetylcholine induced maximum response and the data was analyzed using Graphpad software. EC50 values of the compounds were defined as the concentration required in stimulating the luciferase activity by 50% in presence of EC20 of acetylcholine.
Background: In a reporter assay the amount or activity of a reporter protein is the signal.

The nature of data set [3]: Rodent brain penetration study. Type of data set: in vivo, Male Wistar rats. The note with it: male, Wistar, brain and plasma, po; rat, 3 mg/kg, p.o. @ 1.0 hr, brain-plasma ratio; read-out: Single dose Rat Brain Penetration (Cb/Cp). As for the experimental part: Rodent Brain Penetration Study
Male Wistar rats (260±40 grams) were used as experimental animals. Three animals were housed in each cage. Animals were given water and food ad libitum throughout the experiment and maintained on a 12 hours light/dark cycle.
Brain penetration was determined in discrete manner in rats. One day prior to dosing day, male Wistar rats were acclimatized and randomly grouped according to their weight. At each time point (0.5, 1 and 2 hours) n=3 animals were used.
The test compounds were suitably preformulated and administered orally at (free base equivalent) 3 mg/kg. Blood samples were removed via cardiac puncture by using isoflurane anesthesia. The animals were sacrificed to collect brain tissue. Plasma was separated and brain samples were homogenized and stored frozen at −20° C. until analysis. The concentrations of the test compounds in plasma and brain were determined using LC-MS/MS method.
The test compounds were quantified in plasma and brain homogenate by qualified LC-MS/MS method using suitable extraction technique. The test compounds were quantified in the calibration range of 1-500 ng/mL in plasma and brain homogenate. Study samples were analyzed using calibration samples in the batch and quality control samples spread across the batch.

Data set [4] is described as follows: Rodent pharmacokinetic study. Type of data set: in vivo, Male Wistar rats. The note with it: male, Wistar, rat, plasma; for bioavailability: oral 3 mg/kg vs i.v. 1 mg/kg. As to the method:
Rodent Pharmacokinetic Study
Male Wistar rats (260±50 grams) were used as experimental animals. Animals were housed individually in polypropylene cage. Two days prior to study, male Wistar rats were anesthetized with isoflurane for surgical placement of jugular vein catheter. Rats were randomly divided for oral (3 mg/kg) and intravenous (i.v) (1 mg/kg) dosing (n=3/group) and fasted overnight before oral dosing (p.o.). However, rats allocated to intravenous (i.v.) dosing food and water was provided ad libitum.
At pre-determined point, blood was collected through jugular vein and replenished with an equivalent volume of normal saline. Collected blood was transferred into a labeled eppendorf tube containing 10 μL of heparin as an anticoagulant. Typically blood samples were collected at following time points: 0.08, 0.25, 0.5, 1, 2, 4, 6, 8, and 24 hours post dose. Blood was centrifuged at 4000 rpm for 10 minutes. Plasma was separated and stored frozen at −80° C. until analysis. The concentrations of the test compounds were quantified in plasma by qualified LC-MS/MS method using suitable extraction technique. The test compounds were quantified in the calibration range around 1-1000 ng/mL in plasma. Study samples were analyzed using calibration samples in the batch and quality control samples spread across the batch.
Pharmacokinetic parameters Cmax, AUCt, T1/2, clearance and bioavailability (F) were calculated by non-compartmental model using standard non-compartmental model by using Phoenix WinNonlin 6.0.2 or 6.0.3 version Software package.

Regarding `COc1ccc(Cc2cc(C(=O)N[C@H]3CCCC[C@@H]3O)n3ncccc23)cc1` [Example 20, N-(cis-1S,2S-2-Hydroxycyclohexyl)-5-(4-methoxybenzyl)-pyrrolo[1,2-b]pyridazine-7-carboxamide], in data set [1] (1 mg/kg), the Inference result was “Active”; the “Exploration time mean ± S.E.M, Familiar object” value worked out at 10.31 ± 1.07 s; the “Exploration time mean ± S.E.M, Novel object” value worked out at 14.92 ± 1.11 s. Further, the concentration for a half-maximal effect (EC50) in data set [2] worked out at 1340 nM. The Kp at 1 h in data set [3] was 1.52 ± 0.15. In data set [4] (iv, i.v. 1 mg/kg), this molecule had an AUC(0-t) of 1380 ± 390 ng·h/mL, a half-life of 162 ± 48 min and a clearance of 12.2 ± 3.1 mL/min/kg. Moreover, the bioavailability in data set [4] turned out to be 39 ± 3%. In data set [4] (oral 3 mg/kg), this molecule gave an AUC(0-t) of 1610 ± 139 ng·h/mL, a Cmax of 402 ± 98 ng/mL and a half-life of 204 ± 42 min.
For `Cn1cc(-c2ccc(Cc3cc(C(=O)N[C@H]4CCCC[C@@H]4O)n4ncccc34)c(F)c2)cn1` [Example 34, N-(cis-1S,2S-2-Hydroxycyclohexyl)-5-[2-fluoro-4-(1-methyl-1H-pyrazol-4-yl)-benzyl]-pyrrolo[1,2-b]pyridazine-7-carboxamide], in data set [1] (0.3 mg/kg), the Inference result is reported as “Active”; the “Exploration time mean ± S.E.M, Familiar object” value was 10.35 ± 1.75 s; the “Exploration time mean ± S.E.M, Novel object” value came to 15.63 ± 3.23 s. Also, in data set [2], the 50% effective concentration (EC50) was determined as 989 nM. In addition, the Kp at 1 h in data set [3] turned out to be 0.13 ± 0.02. Besides, in data set [4] (iv, i.v. 1 mg/kg), the exposure AUC(0-t) is 3230 ± 625 ng·h/mL, the half-life was 222 ± 18 min and the clearance came to 5 ± 0.7 mL/min/kg. In data set [4], the bioavailability stood at 66 ± 3%. In data set [4] (oral 3 mg/kg), this molecule showed an area under the curve AUC(0-t) of 6390 ± 312 ng·h/mL, a maximum concentration (Cmax) of 793 ± 86 ng/mL and a half-life of 264 ± 138 min.

As usually defined, the EC50 is the concentration needed to bring the measured effect to its halfway point. For orientation: AUC(0-t) means exposure summed from dosing to a finite time, without extrapolation to infinity. As usually defined, the half-life is the time needed for the level to fall by half in the phase considered. The low end stands for rapid decline, the high end for slow decline. The clearance is the rate of elimination divided by the concentration. A lower clearance goes with a low capacity for elimination. A word on the bioavailability: it is dose-corrected exposure relative to a reference, in per cent. A high value points to much systemic uptake. The term Cmax denotes the highest concentration seen after dosing.
